Assay results from patent US20020068759A1, “Medicament” (SmithKline Beecham plc, priority 1990, published 2002).
Counter-ions that a name gives are not always drawn.

melting point [°C]	Structure (SMILES)
118 to 120	CCCCc1ncc(CC(Cc2ccccc2)C(=O)O)n1Cc1ccccc1Cl (stereo not drawn) (as salt: hydrochloride) [Example 2, 3-[2-n-Butyl-1-{(2-chlorophenyl)methyl}-1H-imidazol-5-yl]-2-benzylpropanoic Acid]
178 to 181	CCCSc1ncc(C[C@H](NC(=O)CCC)C(=O)O)n1Cc1ccccc1Cl [Example 1, 3-[(2-Chlorophenyl)methyl]-2-propylthio-N-butyrylhistidine]
254 to 255	CCCCc1nc2cc(Br)cc(C(=O)O)c2n1Cc1ccccc1Cl [Example 4, 5-Bromo-2-n-butyl-1-(2-chlorophenyl)methyl-1H-benzimidazole-7-carboxylic Acid]
